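Assay format: 96-well plates, 48-hour exposure. The concentration for full growth arrest is given as TGI.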
Columns and labels:
Assay in all cases: inhibition of tumour cell growth, NCI panel, 48 h
M19-MEL melanoma = system: M19-MEL melanoma
OVCAR-3 ovarian = system: OVCAR-3 ovarian
HCT-116 colon = system: HCT-116 colon
EKVX NSCLC = system: EKVX NSCLC
XF 498 CNS = system: XF 498 CNS
HCC-2998 colon = system: HCC-2998 colon
LXFL 529 NSCLC = system: LXFL 529 NSCLC
SK-MEL-28 melanoma = system: SK-MEL-28 melanoma
NCI-H23 lung = system: NCI-H23 lung
UO-31 renal = system: UO-31 renal
SK-MEL-2 melanoma = system: SK-MEL-2 melanoma
NCI-H522 lung = system: NCI-H522 lung
RPMI-8226 leukemia = system: RPMI-8226 leukemia
SK-OV-3 ovarian = system: SK-OV-3 ovarian
786-0 renal = system: 786-0 renal
UACC-257 melanoma = system: UACC-257 melanoma
SW-620 colon = system: SW-620 colon
HL-60(TB) leukemia = system: HL-60(TB) leukemia
K-562 leukemia = system: K-562 leukemia
KM12 colon = system: KM12 colon
NCI-H460 lung = system: NCI-H460 lung
HOP-62 NSCLC = system: HOP-62 NSCLC
KM20L2 colon = system: KM20L2 colon
MOLT-4 leukemia = system: MOLT-4 leukemia
RXF 393 renal = system: RXF 393 renal
DMS 273 small cell lung = system: DMS 273 small cell lung
U251 CNS = system: U251 CNS
A498 renal = system: A498 renal
HT29 colon = system: HT29 colon
DMS 114 small cell lung = system: DMS 114 small cell lung
OVCAR-5 ovarian = system: OVCAR-5 ovarian
CCRF-CEM leukemia = system: CCRF-CEM leukemia
A549 NSCLC = system: A549 NSCLC
M14 melanoma = system: M14 melanoma
SNB-78 CNS = system: SNB-78 CNS
SF-539 CNS = system: SF-539 CNS
SNB-19 CNS = system: SNB-19 CNS
MALME-3M melanoma = system: MALME-3M melanoma
UACC-62 melanoma = system: UACC-62 melanoma
LOX IMVI melanoma = system: LOX IMVI melanoma
HOP-92 NSCLC = system: HOP-92 NSCLC
TK-10 renal = system: TK-10 renal
COLO 205 colon = system: COLO 205 colon
DLD-1 colon = system: DLD-1 colon
OVCAR-8 ovarian = system: OVCAR-8 ovarian
ACHN renal = system: ACHN renal
IGROV1 ovarian = system: IGROV1 ovarian
SNB-75 CNS = system: SNB-75 CNS
RXF-631 renal = system: RXF-631 renal
HCT-15 colon = system: HCT-15 colon
SR leukemia = system: SR leukemia
OVCAR-4 ovarian = system: OVCAR-4 ovarian
SF-268 CNS = system: SF-268 CNS
SK-MEL-5 melanoma = system: SK-MEL-5 melanoma
SF-295 CNS = system: SF-295 CNS
SN12C renal = system: SN12C renal
HOP-18 NSCLC = system: HOP-18 NSCLC

Measured: TGI

COc1cc2c(cc1OC)[C@]1(O)C(=O)c3ccc4c(c3O[C@@H]1CO2)C[C@H](C(C)(C)O)O4
not listed: RXF-631 renal | HCT-15 colon | SR leukemia | OVCAR-4 ovarian | SF-268 CNS | SK-MEL-5 melanoma | SF-295 CNS | SN12C renal | HOP-18 NSCLC
> 100 µM: all other assays above

CC(=O)C1C(=O)C(=O)N(c2ccc(Cl)cc2C)C1=O (stereo not drawn)
not listed: OVCAR-3 ovarian | XF 498 CNS | RPMI-8226 leukemia | SK-OV-3 ovarian | DMS 273 small cell lung | LOX IMVI melanoma | SNB-75 CNS
> 100 µM: all other assays above

— PubChem BioAssay (NCI)
